Measured values: patent publication US5482967A, “Condensed heterocyclic compounds, their production and use” (Takeda Chemical Industries, Ltd., priority 1992, dated 1996)
Structures can show the parent of a compound that is named as a salt.

Molecular target: substance P receptor (Homo sapiens, UniProt P25103)
Assay: Radioligand receptor binding inhibitory assay using receptor from human lymphoblast cells (IM-9), 125I-BHSP
Conditions: IM-9 receptor, 25° C., 30 minutes
Protocol: The method of A. Margaret et al. [Molecular Pharmacology 42, 458 (1992)] was modified and used. The receptor was prepared from human lymphoblast cells (IM-9). IM-9 cells were grown in 175 cm^2 tissue culture flasks (100 ml×10) at a density approximately 2×10^5 /ml of RPMI 1640 with L-glutamine, 10% (V/V) heat inactivated fetal calf serum, penicillin (100 u/ml), and streptomycin (100 μg/ml) at 37° C. in 5% CO2 /95% air for 3 days. IM-9 cells were obtained by centrifugation at 500×g for 5 minutes at 5° C. The pellet obtained was washed once with phosphate buffer (Flow Laboratories, CAT No. 28-103-05), homogenized using Polytron homogenizer (Kinematika, Germany) in 30 ml of 50 mM Tris-HCl buffer containing 120 mM NaCl, 5 mM KCl, 2 μg/ml phenylmethyl sulfonyl fluoride, and 1 mM ethylenediamine tetra-acetic acid and then centrifuged at 40,000×g for 20 minutes. The residue was washed twice with 30 ml of buffer described above, and preserved frozen (-80° C.).
The above specimen was suspended in a reaction buffer (50 mM Tris-HCl buffer (pH 7.4), 0.02% bovine serum albumin, 1 mM phenylmethylsulfonyl fluoride, 2 μg/ml chymostatin, 40 μg/ml bacitracin, 3 mM manganese chloride) at a protein concentration of 1.5 mg/ml and a 100 μl portion of the suspension was used in the reaction. After addition of the sample and 125I-BHSP (0.46 KBq), the reaction was conducted in 0.2 ml of reaction buffer at 25° C. for 30 minutes. The amount of nonspecific binding was determined by adding substance P at a final concentration of 2×10^-6 M. After the reaction, using a cell harvester (290PHD, Cambridge Technology, Inc., England), rapid filtration was carried out through a glass filter (GF/B, Whatman, U.S.A.) to stop the reaction. After washing three times with 250 μl of 50 mM Tris-HCl buffer (pH 7.4) containing 0.02% bovine serum albumin, the radioactivity remaining on the filter was measured with a gamma counter. Before use, the filter was immersed in 0.1% polyethyleneimine for 24 hours and air-dried.

Sequence of substance P receptor (P25103 whole entry): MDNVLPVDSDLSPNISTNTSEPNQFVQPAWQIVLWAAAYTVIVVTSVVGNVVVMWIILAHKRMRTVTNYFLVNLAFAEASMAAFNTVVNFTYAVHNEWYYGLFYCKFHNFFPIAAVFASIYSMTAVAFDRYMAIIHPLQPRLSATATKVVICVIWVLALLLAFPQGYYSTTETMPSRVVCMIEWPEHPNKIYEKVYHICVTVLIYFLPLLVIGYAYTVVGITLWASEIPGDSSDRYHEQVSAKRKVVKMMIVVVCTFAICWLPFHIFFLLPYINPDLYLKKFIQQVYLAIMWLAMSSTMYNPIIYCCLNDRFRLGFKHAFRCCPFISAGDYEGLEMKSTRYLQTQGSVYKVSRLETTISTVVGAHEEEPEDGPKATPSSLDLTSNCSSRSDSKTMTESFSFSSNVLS

| SMILES | IC50 |
| --- | --- |
| CN(Cc1cc(C(F)(F)F)cc(C(F)(F)F)c1)C(=O)c1[nH]c(=O)c2ccc(Cl)cc2c1-c1ccccc1 [Example 177, N-[3,5-Bis(trifluoromethyl)benzyl]-6-chloro-1,2-dihydro-N-methyl-1-oxo-4-phenyl-3-isoquinolinecarboxamide] | 0.013 µM |
| CN(Cc1cc(C(F)(F)F)cc(C(F)(F)F)c1)C(=O)[C@H]1[C@@H](c2ccccc2)c2ccccc2C(=O)N1C (relative stereo) [Example 279, 3,4-cis-N-[3,5-Bis(trifluoromethyl)benzyl]-1,2,3,4-tetrahydro-N-2-dimethyl-1-oxo-4-phenyl-3-isoquinolinecarboxamide] | 0.034 µM |
| CN(Cc1cc(C(F)(F)F)cc(C(F)(F)F)c1)C(=O)c1ncc2ccccc2c1-c1ccc(F)cc1 [Example 274, N-[3,5-Bis(trifluoromethyl)benzyl]-4-(4-fluorophenyl)-N-methyl-3-isoquinolinecarboxamide] | 0.0023 µM |
| CN(Cc1cc(C(F)(F)F)cc(C(F)(F)F)c1)C(=O)c1nc(Cl)c2ccccc2c1-c1ccccc1 [Example 275, N-[3,5-Bis(trifluoromethyl)benzyl]-1-chloro-N-methyl-4-phenyl-3-isoquinolinecarboxamide] | 0.0019 µM |
| CN(Cc1cc(C(F)(F)F)cc(C(F)(F)F)c1)C(=O)c1c(-c2ccccc2)c2c(c(=O)n1C)CCCC2 [Example 186, N-[3,5-Bis(trifluoromethyl)benzyl]-1,2,5,6,7,8-hexahydro-N-2-dimethyl-1-oxo-4-phenyl-3-isoquinolinecarboxamide] | 0.0018 µM |
| CNc1nc2ccccc2c(-c2ccccc2)c1C(=O)N(C)Cc1cc(C(F)(F)F)cc(C(F)(F)F)c1 [Example 271, N-[3,5-Bis(trifluoromethyl)benzyl]-N-methyl-2-methylamino-4-phenyl-3-quinolinecarboxamide] | 0.0019 µM |
| Cc1cc(F)ccc1-c1c(C(=O)N(C)Cc2cc(C(F)(F)F)cc(C(F)(F)F)c2)n(C)c(=O)c2ccccc12 [Example 176, N-[3,5-Bis(trifluoromethyl)benzyl]-4-(4-fluoro-2-methylphenyl)-1,2-dihydro-N,2-dimethyl-1-oxo-3-isoquinolinecarboxamide] | 0.0007 µM |
| Cc1nc2ccccc2c(-c2ccccc2)c1C(=O)N(C)Cc1cc(C(F)(F)F)cc(C(F)(F)F)c1 [Example 267, N-[3,5-Bis(trifluoromethyl)benzyl]-N,2-dimethyl-4-phenyl-3-quinolinecarboxamide] | 0.00068 µM |
| Cc1ccccc1-c1c(C(=O)NCc2cc(C(F)(F)F)cc(C(F)(F)F)c2)n(C)c(=O)c2ccccc12 [Example 101, N-[3,5-Bis(trifluoromethyl)benzyl]-1,2-dihydro-2-methyl-4-(2-methylphenyl)-1-oxo-3-isoquinolinecarboxamide] | 0.0025 µM |
| Cc1ccc(CNC(=O)c2c(-c3ccccc3)c3ccccc3c(=O)n2C)cc1 [Example 170, 1,2-Dihydro-2-methyl-N-(4-methylbenzyl)-1-oxo-4-phenyl-3isoquinolinecarboxamide] | 0.019 µM |
| COc1nc(C(=O)N(C)Cc2cc(C(F)(F)F)cc(C(F)(F)F)c2)c(-c2ccccc2)c2ccccc12 [Example 277, N-[3,5-Bis(trifluoromethyl)benzyl]-1-methoxy-N-methyl-4-phenyl-3-isoquinolinecarboxamide] | 0.054 µM |
| Cc1nc2ccccc2c(-c2ccccc2)c1C(=O)NCc1cc(C(F)(F)F)cc(C(F)(F)F)c1 [Example 266, N-[3,5-Bis(trifluoromethyl)benzyl]-2-methyl-4-phenyl-3-quinolinecarboxamide] | 0.0082 µM |
| CN(Cc1cc(C(F)(F)F)cc(C(F)(F)F)c1)C(=O)c1nc(Cl)c2ccccc2c1-c1ccc(F)cc1 [Example 273, N-[3,5-Bis(trifluoromethyl)benzyl]-1-chloro-4-(4-fluorophenyl)-N-methyl-3-isoquinolinecarboxamide] | 0.002 µM |
| CN(Cc1cc(C(F)(F)F)cc(C(F)(F)F)c1)C(=O)c1c(-c2ccc(F)cc2)c2ccccc2c(=O)n1C [Example 166, N-[3,5-Bis(trifluoromethyl)benzyl]-4-(4-fluorophenyl)-1,2-dihydro-N,2-dimethyl-1-oxo-3-isoquinolinecarboxamide] | 0.00035 µM |
| Cc1cc(C)cc(CNC2CCCn3c2c(-c2ccccc2)c2cc(C)c(C)cc2c3=O)c1 (centres unmarked) [Example 233, 1-(3,5-Dimethylbenzylamino)-1,2,3,4-tetrahydro-8,9-dimethyl-6-oxo-11-phenyl-6H-benzo[b]quinolizine hydrochloride] | 0.044 µM |
| Cc1cc2c(-c3ccccc3)c(C(=O)N(C)Cc3cc(C(F)(F)F)cc(C(F)(F)F)c3)n(C)c(=O)c2cc1C [Example 112, N-[3,5-Bis(trifluoromethyl)benzyl]-1,2-dihydro-N,2,6,7-tetramethyl-1-oxo-4-phenyl-3-isoquinolinecarboxamide] | 0.0084 µM |
| Cn1c(=O)c(C(=O)NCc2cc(C(F)(F)F)cc(C(F)(F)F)c2)c(-c2ccccc2Cl)c2ccccc21 [Example 261, N-[3,5-Bis(trifluoromethyl)benzyl]-4-(2-chlorophenyl)-1,2-dihydro-1-methyl-2-oxo-3-quinolinecarboxamide] | 0.063 µM |
| Cn1c(C(=O)NCc2cc(C(F)(F)F)cc(C(F)(F)F)c2)c(-c2ccccc2)c2c(c1=O)CCCC2 [Example 185, N-[3,5-Bis(trifluoromethyl)benzyl]-1,2,5,6,7,8-hexahydro-2-methyl-1-oxo-4-phenyl-3-isoquinolinecarboxamide] | 0.032 µM |

Now from value to compound:

| IC50 | SMILES |
| --- | --- |
| 0.08 µM | COc1ccccc1CNC1CCCn2c1c(-c1ccccc1)c1ccccc1c2=O (centres unmarked) [Example 239, 1,2,3,4-Tetrahydro-1-(2-methoxybenzylamino)-6-oxo-11-phenyl-6H-benzo[b]quinolizine] |
| 0.0009 µM | CN(Cc1cc(C(F)(F)F)cc(C(F)(F)F)c1)C(=O)c1c(-c2ccccc2)c2ccccc2oc1=O [Example 250, N-[3,5-Bis(trifluoromethyl)benzyl]-N-methyl-2-oxo-4-phenyl-2H-1-benzopyran-3-carboxamide] |
| 0.11 µM | COc1ccccc1CCOCc1c(-c2ccccc2)c2cc(C)c(C)cc2c(=O)n1C [Example 207, 1,2-Dihydro-2,6,7-trimethyl-1-oxo-4-phenyl-3-isoquinolinemethyl 2-(2-methoxyphenyl)ethyl ether] |
| 0.046 µM | Cc1ccc2c(c1)c(-c1ccccc1Cl)c(C(=O)N(C)Cc1cc(C(F)(F)F)cc(C(F)(F)F)c1)c(=O)n2C [Example 263, N-[3,5-Bis(trifluoromethyl)benzyl]-4-(2-chlorophenyl)-1,2-dihydro-N,1,6-trimethyl-2-oxo-3-quinolinecarboxamide] |
| 0.0014 µM | CCN(Cc1cc(C(F)(F)F)cc(C(F)(F)F)c1)C(=O)c1c(-c2ccccc2)c2ccccc2c(=O)n1C [Example 187, N-[3,5-Bis(trifluoromethyl)benzyl]-1,2-dihydro-N-ethyl-2-methyl-1-oxo-4-phenyl-3-isoquinolinecarboxamide] |
| 0.017 µM | CN(Cc1cc(C(F)(F)F)cc(C(F)(F)F)c1)C(=O)c1c(-c2ccccc2)c2cc(Cl)ccc2oc1=O [Example 249, N-[3,5-Bis(trifluoromethyl)benzyl]-6-chloro-N-methyl-2-oxo-4-phenyl-2H-1-benzopyran-3-carboxamide] |
| 0.06 µM | COc1ccccc1-c1c(C(=O)N(C)Cc2cc(C(F)(F)F)cc(C(F)(F)F)c2)c(=O)oc2ccc(Cl)cc12 [Example 251, N-[3,5-Bis(trifluoromethyl)benzyl]-6-chloro-4-(2-methoxyphenyl)-N-methyl-2-oxo-2H-1-benzopyran-3-carboxamide] |
| 0.034 µM | Cc1ccccc1-c1c(C(=O)N(C)Cc2ccccc2)n(C)c(=O)c2ccccc12 [Example 103, N-Benzyl-1,2-dihydro-N,2-dimethyl-4-(2-methylphenyl)-1-oxo-3-isoquinolinecarboxamide] |
| 0.012 µM | COc1ccccc1-c1c(C(=O)N(C)Cc2cc(C(F)(F)F)cc(C(F)(F)F)c2)n(C)c(=O)c2ccccc12 [Example 159, N-[3,5-Bis(trifluoromethyl)benzyl]-1,2-dihydro-4-(2-methoxyphenyl)-N,2-dimethyl-1-oxo-3-isoquinolinecarboxamide] |
| 0.0017 µM | CCn1c(C(=O)N(C)Cc2cc(C(F)(F)F)cc(C(F)(F)F)c2)c(-c2ccccc2)c2ccccc2c1=O [Example 189, N-[3,5-Bis(trifluoromethyl)benzyl]-1,2-dihydro-2-ethyl-N-methyl-1-oxo-4-phenyl-3-isoquinolinecarboxamide] |
| 0.059 µM | O=C(NCc1cc(C(F)(F)F)cc(C(F)(F)F)c1)c1oc(=O)c2ccccc2c1-c1ccc(F)cc1 [Example 245, N-[3,5-Bis(trifluoromethyl)benzyl]-4-(4-fluorophenyl)-1-oxo-1H-2-benzopyran-3-carboxamide] |
